Results published in US20120270884A1, “Methods of Treating Aneurysmal Dilatation, Blood Vessel Wall Weakness and Specifically Abdominal Aortic and Thoracic Aneurysm Using Matrix Metalloprotease-2 Inhibitors” (SYMPHONY EVOLUTION, INC., priority 2009, published 2012).

Assays:
MMP-13 (collagenase-3) = MMP-13 (collagenase-3) (Homo sapiens, UniProt P45452); assay: In vitro metalloprotease inhibition, MMP-13; format: biochemical
[1] = target: T1, MMP-2 (72 kDa gelatinase, gelatinase A) (Homo sapiens, UniProt P08253); assay: In vitro metalloprotease inhibition, MMP-2; format: biochemical
T1 sequence (P08253 110-660): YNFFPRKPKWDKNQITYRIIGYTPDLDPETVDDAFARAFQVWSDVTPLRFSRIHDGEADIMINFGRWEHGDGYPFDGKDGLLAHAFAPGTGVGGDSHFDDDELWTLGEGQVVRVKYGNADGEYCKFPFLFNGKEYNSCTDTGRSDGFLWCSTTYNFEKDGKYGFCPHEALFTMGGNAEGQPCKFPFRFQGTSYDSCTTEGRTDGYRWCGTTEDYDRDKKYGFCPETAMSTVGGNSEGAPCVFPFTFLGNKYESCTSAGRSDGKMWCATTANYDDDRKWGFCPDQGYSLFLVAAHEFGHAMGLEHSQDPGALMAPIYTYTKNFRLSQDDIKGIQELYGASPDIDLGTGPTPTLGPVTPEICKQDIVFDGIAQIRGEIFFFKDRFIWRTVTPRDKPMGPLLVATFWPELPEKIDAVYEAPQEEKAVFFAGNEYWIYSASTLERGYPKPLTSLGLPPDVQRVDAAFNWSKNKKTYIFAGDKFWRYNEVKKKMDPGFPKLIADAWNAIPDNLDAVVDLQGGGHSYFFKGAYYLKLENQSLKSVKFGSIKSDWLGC

[2] = target: MMP-8 (Neutrophil collagenase) (Homo sapiens, UniProt P22894); assay: In vitro metalloprotease inhibition, MMP-8; format: biochemical
Chain of MMP-8 (Neutrophil collagenase) (P22894 101-467, species assumed): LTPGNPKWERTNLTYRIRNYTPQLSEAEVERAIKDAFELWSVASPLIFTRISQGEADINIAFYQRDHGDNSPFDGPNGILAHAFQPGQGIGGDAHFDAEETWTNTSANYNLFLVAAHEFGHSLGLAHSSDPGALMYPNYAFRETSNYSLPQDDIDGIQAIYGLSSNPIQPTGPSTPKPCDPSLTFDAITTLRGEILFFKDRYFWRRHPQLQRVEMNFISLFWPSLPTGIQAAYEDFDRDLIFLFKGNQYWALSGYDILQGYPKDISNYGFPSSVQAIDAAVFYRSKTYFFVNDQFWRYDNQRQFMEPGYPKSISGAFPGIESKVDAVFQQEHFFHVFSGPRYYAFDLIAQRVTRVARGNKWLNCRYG

[3] = target: TACE (TNF-alpha converting enzyme, ADAM-17) (Homo sapiens, UniProt P78536); assay: In vitro metalloprotease inhibition, TACE; format: biochemical
Chain of TACE (TNF-alpha converting enzyme, ADAM-17) (P78536 215-824): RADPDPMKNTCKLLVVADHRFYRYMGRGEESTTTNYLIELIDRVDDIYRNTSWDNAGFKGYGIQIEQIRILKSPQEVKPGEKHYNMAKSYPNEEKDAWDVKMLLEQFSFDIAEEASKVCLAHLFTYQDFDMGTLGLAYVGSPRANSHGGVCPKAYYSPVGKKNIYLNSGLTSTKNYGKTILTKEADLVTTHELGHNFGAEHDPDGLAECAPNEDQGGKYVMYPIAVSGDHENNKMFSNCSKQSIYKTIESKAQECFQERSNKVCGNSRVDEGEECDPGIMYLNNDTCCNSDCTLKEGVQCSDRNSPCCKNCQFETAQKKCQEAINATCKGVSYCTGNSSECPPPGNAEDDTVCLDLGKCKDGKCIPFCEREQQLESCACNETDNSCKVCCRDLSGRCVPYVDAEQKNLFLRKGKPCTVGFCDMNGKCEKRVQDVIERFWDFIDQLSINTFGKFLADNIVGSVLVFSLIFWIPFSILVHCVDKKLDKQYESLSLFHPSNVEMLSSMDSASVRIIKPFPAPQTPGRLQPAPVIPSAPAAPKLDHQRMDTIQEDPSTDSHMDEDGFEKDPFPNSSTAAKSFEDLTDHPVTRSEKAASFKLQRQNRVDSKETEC
From the text: (§1) Blank cells indicate lack of data only.

[4] = target: T2, MMP-1 (Fibroblast collagenase) (Homo sapiens, UniProt P03956); assay: In vitro metalloprotease inhibition, MMP-1; format: biochemical
T2 sequence (P03956 100-469): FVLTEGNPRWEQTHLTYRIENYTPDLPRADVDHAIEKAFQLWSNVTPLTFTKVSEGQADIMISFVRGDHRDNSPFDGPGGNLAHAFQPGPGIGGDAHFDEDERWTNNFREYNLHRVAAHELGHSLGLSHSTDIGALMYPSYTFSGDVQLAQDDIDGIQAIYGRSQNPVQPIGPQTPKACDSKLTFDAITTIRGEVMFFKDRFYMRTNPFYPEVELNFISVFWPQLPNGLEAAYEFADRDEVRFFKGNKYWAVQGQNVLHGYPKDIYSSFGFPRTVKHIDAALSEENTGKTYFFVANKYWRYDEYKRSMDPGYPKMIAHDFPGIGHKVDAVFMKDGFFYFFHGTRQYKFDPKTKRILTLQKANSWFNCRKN
From the text: as §1

MMP-3 (Stromelysin-1) = MMP-3 (Stromelysin-1) (Homo sapiens, UniProt P08254); assay: In vitro metalloprotease inhibition, MMP-3; format: biochemical
Chain of MMP-3 (Stromelysin-1) (P08254 100-477, species assumed): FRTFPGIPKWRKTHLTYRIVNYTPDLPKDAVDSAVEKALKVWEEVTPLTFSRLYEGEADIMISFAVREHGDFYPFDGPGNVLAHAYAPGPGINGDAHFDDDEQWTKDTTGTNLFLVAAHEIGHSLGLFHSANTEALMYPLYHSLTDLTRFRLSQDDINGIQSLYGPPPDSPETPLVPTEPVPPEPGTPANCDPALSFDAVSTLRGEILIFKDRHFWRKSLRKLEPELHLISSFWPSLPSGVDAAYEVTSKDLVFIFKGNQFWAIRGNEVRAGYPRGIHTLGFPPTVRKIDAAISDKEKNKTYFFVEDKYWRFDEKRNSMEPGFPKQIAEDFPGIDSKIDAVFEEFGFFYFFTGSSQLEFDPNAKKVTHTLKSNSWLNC
From the text: as §1

[5] = target: MMP-9 (92 kDa gelatinase, gelatinase B) (Homo sapiens, UniProt P14780); assay: In vitro metalloprotease inhibition, MMP-9; format: biochemical
Chain of MMP-9 (92 kDa gelatinase, gelatinase B) (P14780 94-707, species assumed): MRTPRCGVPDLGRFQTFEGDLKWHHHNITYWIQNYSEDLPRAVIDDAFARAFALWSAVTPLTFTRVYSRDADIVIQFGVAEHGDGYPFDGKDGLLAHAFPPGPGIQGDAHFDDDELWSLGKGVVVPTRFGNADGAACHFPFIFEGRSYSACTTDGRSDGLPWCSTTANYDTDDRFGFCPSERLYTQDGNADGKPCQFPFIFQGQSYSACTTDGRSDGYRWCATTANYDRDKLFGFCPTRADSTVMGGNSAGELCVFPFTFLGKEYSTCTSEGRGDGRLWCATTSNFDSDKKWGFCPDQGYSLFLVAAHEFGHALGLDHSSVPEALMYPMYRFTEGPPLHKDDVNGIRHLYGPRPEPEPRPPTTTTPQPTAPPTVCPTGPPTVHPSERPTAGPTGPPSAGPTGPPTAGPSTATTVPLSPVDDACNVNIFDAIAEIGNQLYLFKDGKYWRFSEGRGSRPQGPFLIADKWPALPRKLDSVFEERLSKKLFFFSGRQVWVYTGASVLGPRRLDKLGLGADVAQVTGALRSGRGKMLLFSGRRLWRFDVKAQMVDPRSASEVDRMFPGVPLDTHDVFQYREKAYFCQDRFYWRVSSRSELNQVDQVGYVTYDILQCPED

ADAM-10 = target: T3, ADAM-10 (UniProt O14672); assay: ADAM-10 enzyme assay, cleavage of fluorogenic 10-residue peptide; settings: read-out: IC50 ADAM-10; in vitro
T3 sequence (O14672 1-748): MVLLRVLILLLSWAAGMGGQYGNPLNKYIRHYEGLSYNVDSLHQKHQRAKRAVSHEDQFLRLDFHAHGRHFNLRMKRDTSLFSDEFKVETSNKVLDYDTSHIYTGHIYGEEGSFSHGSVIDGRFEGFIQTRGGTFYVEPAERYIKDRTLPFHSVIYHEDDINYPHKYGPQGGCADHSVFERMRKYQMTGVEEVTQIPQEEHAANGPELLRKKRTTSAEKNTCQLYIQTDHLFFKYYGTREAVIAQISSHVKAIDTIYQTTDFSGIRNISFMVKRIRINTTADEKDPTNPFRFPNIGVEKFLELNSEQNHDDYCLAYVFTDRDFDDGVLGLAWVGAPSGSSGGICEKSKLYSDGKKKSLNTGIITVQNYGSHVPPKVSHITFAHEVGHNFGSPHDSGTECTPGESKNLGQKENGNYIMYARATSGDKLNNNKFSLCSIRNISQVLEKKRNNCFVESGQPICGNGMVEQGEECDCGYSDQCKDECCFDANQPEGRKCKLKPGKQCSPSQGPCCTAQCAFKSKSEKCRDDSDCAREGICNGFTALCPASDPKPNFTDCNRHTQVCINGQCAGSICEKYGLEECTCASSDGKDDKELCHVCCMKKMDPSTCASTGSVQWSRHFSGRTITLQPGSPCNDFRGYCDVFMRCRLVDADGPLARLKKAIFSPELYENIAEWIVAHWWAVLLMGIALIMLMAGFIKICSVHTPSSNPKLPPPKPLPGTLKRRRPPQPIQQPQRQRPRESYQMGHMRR
Method: mADAM-10 or hADAM-10 activity was measured as the ability to cleave a 10-residue peptide (DABCYL-Leu-Leu-Ala-Gln-Lys-*-Leu-Arg-Ser-Ser-Arg-EDANS). […] Enzyme was diluted to a final active concentration of 5 nM in Buffer A (50 mM HEPES 8.0, 100 mM NaCl, 1 mM CaCl2 and 0.01% NP-40). Serial dilutions for compounds were performed ranging from 100 μM to 0.5 nM using a Beckman Biomek 2000 in polypropylene plates (Greiner). 20 μl of enzyme solution was added to 10 μl of compound in buffer A, and allowed to incubate for 15 min in 384 well black, Greiner, microtiter plates (#781076). 20 μl of substrate (12.5 μM in Buffer A) was then added, resulting in final reaction conditions of 2 nM ADAM-10, 5 μM substrate, and compound concentrations ranging from 20 uM to 0.1 nM. The reaction was incubated for 2 hr at RT, and fluorescence was measured at Ex355, Em460 on a Wallac Victor 2 fluorescence reader. […] This reaction was incubated for 16 hr at RT and fluorescence was read using identical conditions.

[6] = system: abdominal aorta of C57/B16 mice after elastase perfusion; assay: Elastase-perfusion mouse model of AAA; format: in vivo
From the text: All mice used in the experiment were commercially obtained C57/B16 inbred strain mice. Throughout the experimental course, mice were allowed free access to food and water. Animals were housed in a controlled animal facility, and all mouse care and treatment occurred under approved protocols.
A total of 89 C57/B16 mice were subjected to transient perfusion of the abdominal aorta according to a protocol known in the art. Briefly, after sedation and preparation, the aorta was approached through a midline laparotomy. The infrarenal aorta was dissected and the diameter was measured under physiologic blood pressure. A segment of infrarenal aorta was isolated and a 5 minute perfusion of this segment was performed through an arteriotomy at 100 mmHg with a solution containing type I porcine pancreatic elastase (PPE 0.16 U/mL). All of the experiments were performed with a single PPE preparation derived from the same commercial source and lot.
Following aortic perfusion the arteriotomy was repaired, the laparotomy was closed and the animal was allowed to completely recover before returning to its standard housing.
Following aortic perfusion, animals were placed into one of 5 treatment groups. […] Three different doses of the agent were used, 50 mg/kg/day (n=17), 125 mg/kg/day (n=17), and 250 mg/kg/day (n=18). There were two mice in each group which died following aortic perfusion, and all others were available for analysis. Control animals (n=18) were similarly treated with daily gavage of the Cremophor diluent only. Of these mice, 16 survived the two weeks following aortic perfusion and underwent final aortic measurements and harvest. […] In this group, 4 mice died prior to the two week harvest, and all others were used in the analysis of aneurysm growth.
Two weeks following elastase perfusion, the mice were again anesthetized; the laparotomy incision was reopened and the final aortic diameter was measured in vivo prior to sacrifice. The animals were humanely sacrificed, and circulating blood and the entire perfused segment of aorta was harvested for RNA extraction, protein extraction or histology.
The aortas from several mice from each experimental group were perfusion fixed with 10% neutral-buffered formalin, removed, and placed in additional formalin for a minimum of 24 hours prior to processing for paraffin embedding. Following paraffin embedding, aortic specimens were cut into 5 μm sections and mounted on glass slides. Each specimen was stained with hematoxylin and eosin to evaluate inflammatory cell infiltration and Accustain® Elastic Stain kit to assess the degree of elastin degradation. Photomicrographs of serial sections were obtained using an Olympus BX60 light microscope equipped with CV12 video capture camera. […]

Row | SMILES | IC50 (MMP-13 (collagenase-3)) [nM] | IC50 [1] [nM] | IC50 [2] [nM] | IC50 [3] [nM] | IC50 [4] [nM] | IC50 (MMP-3 (Stromelysin-1)) [nM] | IC50 [5] [nM] | IC50 (ADAM-10) [nM] | animals which did not develop aneurysms (% ΔAD not greater than 100%) ([6]; mice, 250 mg/kg/day daily gavage, 2 weeks, not statistically different than controls) [%] | aortic histology: degree of elastin damage and inflammatory cell inflammation ([6]; mice, 50, 125, 250 mg/kg/day daily gavage, aorta at harvest, H&E and VVG stain) | aortic diameters at harvest versus control animals ([6]; mice, all doses (50, 125, 250 mg/kg/day), 2 weeks) | maximal diameters (% ΔAD) of all animals ([6]; mice, low and intermediate dose groups (50 and 125 mg/kg/day), 2 weeks)
1 | O=C(NO)[C@H]1CN(C(=O)N2CCOCC2)CCN1S(=O)(=O)c1cc(F)c(Oc2ccc(Cl)cc2)c(F)c1 [Entry 30] | < 50 | < 50 | < 50 | 50 to 1000 | 1000 to 20000 | 50 to 1000 | 50 to 1000 | – | – | – | – | –
2 | O=C(NO)[C@H]1CN(C(=O)c2cc(F)c(O)c(F)c2)CCN1S(=O)(=O)c1cc(F)c(Oc2ccc(Cl)cc2)c(F)c1 [Entry 41] | < 50 | < 50 | – | – | 1000 to 20000 | < 50 | – | < 50 | – | – | – | –
3 | COCCOC(=O)N1CCN(S(=O)(=O)c2cc(F)c(Oc3ccc(Cl)cc3)c(F)c2)[C@@H](C(=O)NO)C1 [Entry 15] | – | – | – | 50 to 1000 | 1000 to 20000 | 50 to 1000 | – | – | 12 | inversely correlated with the dose of the agent administered | significantly smaller than control animals | greater than 100%
